Assay results taken from patent US11773127B2, “Compounds and methods for treating bacterial infections” (Washington University, priority 2017, dated 2023).
Read-outs that look alike come from different tables or passages of the source.

Target: T1, FmlHLD (Escherichia coli, UniProt P77588)
T1 construct: 6xHis (C); made in house; host or cells: E. coli C600, periplasm, pTRC99a
Assay: biochemical
Type: binding, E. coli
Conditions: for PI100 (percent inhibition): galactoside at 100 μM, 100 µM; for % Inhibition at [μM] [100]: compound at 100 μM
Method in brief: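 Sialidase-treated bovine submaxillary mucin (ds-BSM) coated wells, BSA-blocked, then biotinylated FmlH^LD (20 μg/mL) with or without compound for 1 h at room temperature. Bound lectin detected by streptavidin-HRP/TMB, A450.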

[1] = IC50 (μM), Table 5, Gal and GalNAc inhibition of FmlH
[2] = read-out: % Inhibition at [μM] [0.1], compound at 0.1 μM (100 nM), inhibition of FmlHLD binding to ds-BSM
[3] = read-out: % Inhibition at [μM] [1], compound at 1 μM, inhibition of FmlHLD binding to ds-BSM
[4] = read-out: PI (0.1) (average percent inhibition), compound at 100 nM, Table 4
[5] = read-out: PI(1) (average percent inhibition), compound at 1 μM, Table 4
[6] = read-out: PI100 (percent inhibition), galactoside at 100 μM, mean with standard error of the mean
[7] = read-out: % Inhibition at [μM] [100], compound at 100 μM, inhibition of FmlHLD binding to ds-BSM
[8] = read-out: % Inhibition at [μM] [10], compound at 10 μM, inhibition of FmlHLD binding to ds-BSM
[9] = IC50, inhibition of FmlHLD binding to ds-BSM
[10] = mean with standard error of the mean
[11] = read-out: PI10 (percent inhibition), galactoside at 10 μM, mean with standard error of the mean
[12] = inhibition of FmlHLD binding to ds-BSM

T1 sequence (P77588 25-182): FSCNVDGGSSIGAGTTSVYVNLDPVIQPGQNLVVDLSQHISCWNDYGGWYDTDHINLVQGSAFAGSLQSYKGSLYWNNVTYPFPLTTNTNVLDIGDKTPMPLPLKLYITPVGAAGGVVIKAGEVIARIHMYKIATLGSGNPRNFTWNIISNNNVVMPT

For `COc1ccc(O)cc1-c1ccccc1O[C@@H]1O[C@H](CO)[C@H](O)[C@H](O)[C@H]1NC(C)=O` [AM2073, N-((2S,3R,4R,5R,6R)-4,5-dihydroxy-2-((5′-hydroxy-2′-methoxy-[1,1′-biphenyl]-2-yl)oxy)-6-(hydroxymethyl)tetrahydro-2H-pyran-3-yl)acetamide], the “inhibitory potency against FmlH, in words” value (ELISA-based competition assay) was “equal or slightly reduced potency”, the IC50 [1] was 0.51 µM and the inhibition at 0.1 µM [2] was 7.1%. It also gave an inhibition at 1 µM [3] of 34.2%, an inhibition at 0.1 µM [4] of 7.1% and an inhibition at 1 µM [5] of 34.2%.

`CC(=O)N[C@H]1[C@H](Oc2cccc3c(C)ccnc23)O[C@H](CO)[C@H](O)[C@@H]1O` [AM1192, N-((2S,3R,4R,5R,6R)-4,5-dihydroxy-6-(hydroxymethyl)-2-((4-methylquinolin-8-yl)oxy)tetrahydro-2H-pyran-3-yl)acetamide] gave an inhibition at 1 µM [3] of 16.8% and an inhibition at 1 µM [5] of 16.8%.

Work on `OC[C@H]1O[C@@H](Oc2ccc(-c3ccccc3)cc2)[C@H](O)[C@@H](O)[C@H]1O` [Compound 32β, [1,1′-biphenyl]-4-yl α/β-D-galactopyranoside] yielded an inhibition at 100 µM [6] of 30%.

Compound `OC[C@H]1O[C@@H](Oc2cccc3ccncc23)[C@H](O)[C@@H](O)[C@H]1O` [EXW020a] has an inhibition at 100 µM [7] of 15.2%.

For `COC(=O)c1cccc(-c2ccccc2O[C@@H]2O[C@H](CO)[C@H](O)[C@H](O)[C@H]2O)c1` [Compound 116f], the inhibition at 1 µM [3] was 3.7%, the inhibition at 10 µM [8] was 22.4% and the inhibition at 100 µM [7] was 86.6%.

For `COc1cc(OC)cc(O[C@@H]2O[C@H](CO)[C@H](O)[C@H](O)[C@H]2O)c1` [Compound 151d], the inhibition at 10 µM [8] was 11.7% and the inhibition at 100 µM [7] was 76.4%.

In the case of `Cc1c(C)c2ccc(O[C@@H]3O[C@H](CO)[C@H](O)[C@H](O)[C@H]3O)cc2oc1=O` [Compound D715-0293, reference compound], the inhibition at 1 µM [3] is reported as 10.2%, the inhibition at 10 µM [8] is reported as 19.8% and the inhibition at 100 µM [7] is reported as 89.2%.

With `CCOC(=O)c1ccc(OC)c(-c2ccccc2O[C@@H]2O[C@H](CO)[C@H](O)[C@H](O)[C@H]2NC(C)=O)c1` [AM2053, ethyl 2′-(((2S,3R,4R,5R,6R)-3-acetamido-4,5-dihydroxy-6-(hydroxymethyl)tetrahydro-2H-pyran-2-yl)oxy)-6-methoxy-[1,1′-biphenyl]-3-carboxylate] the inhibition at 0.1 µM [2] was 0%, the inhibition at 1 µM [3] was 13.7% and the inhibition at 0.1 µM [4] was 0%. For the same compound, the inhibition at 1 µM [5] was 13.7%.

`CC(=O)N[C@H]1[C@H](Oc2ccccc2-c2cccc(NS(=O)(=O)C(F)(F)F)c2)O[C@H](CO)[C@H](O)[C@@H]1O` [AM2112] gave an IC50 [9] of 2.43 µM.

In the case of `OC[C@H]1O[C@@H](SCCc2ccccc2)[C@H](O)[C@@H](O)[C@H]1O` [2-phenylethyl-thio-galactoside, reference compound], the inhibition at 10 µM [8] is reported as 2.31% and the inhibition at 100 µM [7] is reported as 49.9%.

Compound `CC(=O)N[C@H]1[C@H](Oc2cccc3cccnc23)O[C@H](CO)[C@H](O)[C@@H]1O` [AM1176] has an inhibition at 1 µM [3] of 21% and an inhibition at 1 µM [5] of 21%.

For `OC[C@H]1O[C@@H](Oc2ccccc2)[C@H](O)[C@@H](O)[C@H]1O` [Compound 1β, phenyl β-galactoside], the “PI100 (percent inhibition)” value [10] was 76.9 ± 0.4%, the inhibition at 10 µM [11] was 15.5 ± 4.2% and the inhibition at 100 µM [6] was 77%.

`O=[N+]([O-])c1ccc(S[C@@H]2O[C@H](CO)[C@H](O)[C@H](O)[C@H]2O)cc1` [PNPTG, reference compound] gave an inhibition at 10 µM [8] of 17% and an inhibition at 100 µM [7] of 72.5%.

For `N#Cc1ccc(O[C@@H]2O[C@H](CO)[C@H](O)[C@H](O)[C@H]2O)cc1` [Compound 9β, 4-cyanophenyl β-D-galactopyranoside], the “PI100 (percent inhibition)” value [10] was 85.7 ± 1.6%, the inhibition at 1 µM (read-out: PI1 (percent inhibition), galactoside at 1 μM, mean with standard error of the mean) was 9.5 ± 3.7% and the inhibition at 10 µM [11] was 19.2 ± 4.8%. It also gave an inhibition at 100 µM [6] of 86%.

With `OC[C@H]1O[C@@H](Oc2ccccc2)[C@H](O)[C@@H](O)[C@H]1O` [Phenyl Gal, reference compound] the inhibition at 10 µM [8] was 15.5% and the inhibition at 100 µM [7] was 76.9%.

`OC[C@H]1O[C@@H](Oc2cccc3ccccc23)[C@H](O)[C@@H](O)[C@H]1O` [Compound 115af2] showed an inhibition at 100 µM [7] of 45.9%.

`CC(=O)N[C@@H]1[C@H](Oc2ccccc2-c2cccc(NC(=O)C(F)(F)F)c2)OC(CO)[C@H](O)[C@@H]1O` (stereo partly drawn) [Compound 3044, N-(2′-(((2S,3S,4R,5R)-3-acetamido-4,5-dihydroxy-6-(hydroxymethyl)tetrahydro-2H-pyran-2-yl)oxy)-[1,1′-biphenyl]-3-yl)-2,2,2-trifluoroacetamide] was tested, and the IC50 [1] was 0.37 µM.

Compound `OC[C@H]1O[C@H](Oc2ccccc2-c2ccccc2)[C@H](O)[C@@H](O)[C@H]1O` [Compound 28α, [1,1′-biphenyl]-2-yl α/β-D-galactopyranoside] has an inhibition at 100 µM [6] of 19.2 ± 3%.

With `CC(=O)N[C@H]1[C@H](Oc2ccccc2-c2cccc(NS(=O)(=O)C(F)(F)F)c2)O[C@H](CO)[C@H](O)[C@@H]1O` [Compound 3049, N-((2S,3R,4R,5R,6R)-4,5-dihydroxy-6-(hydroxymethyl)-2-((3′-((trifluoromethyl)sulfonamido)-[1,1′-biphenyl]-2-yl)oxy)tetrahydro-2H-pyran-3-yl) acetamide] the IC50 [1] was 1.17 µM.

For `O=c1ccc2nc3ccc(O[C@@H]4O[C@H](CO)[C@H](O)[C@H](O)[C@H]4O)cc3oc-2c1` [Resorufin Gal, reference compound], the inhibition at 10 µM [8] was 24% and the inhibition at 100 µM [7] was 80.4%.

For `COc1ccc(C(=O)O)cc1-c1ccccc1O[C@@H]1O[C@H](CO)[C@H](O)[C@H](O)[C@H]1NC(C)=O` [AM2051], the inhibition at 0.1 µM [2] was 0% and the inhibition at 1 µM [3] was 15.9%.

`O=[N+]([O-])c1ccc(O[C@@H]2O[C@H](CO)[C@H](O)[C@H](O)[C@H]2O)cc1` [p-Nitrophenyl Gal, reference compound] was tested, and the inhibition at 10 µM [8] was 13.7% and the inhibition at 100 µM [7] was 78.1%.

`OC[C@H]1O[C@@H](Oc2ccc3ccccc3c2)[C@H](O)[C@@H](O)[C@H]1O` [Compound 19β] was tested, and the “PI100 (percent inhibition)” value [10] was 78.8 ± 2.1%, the inhibition at 10 µM [11] was 14.6 ± 3.1% and the inhibition at 100 µM [6] was 79%.

`OC[C@H]1O[C@@H](Oc2ccc3ccccc3c2)[C@H](O)[C@@H](O)[C@H]1O` [2-napthyl Gal, reference compound] gave an inhibition at 10 µM [8] of 14.6% and an inhibition at 100 µM [7] of 78.8%.

`O=C(O)c1cccc(-c2ccccc2O[C@H]2O[C@H](CO)[C@H](O)[C@H](O)[C@H]2O)c1` [Compound 200a] showed an inhibition at 100 µM [7] of 26.2%.

With `OC[C@H]1O[C@@H](Oc2cc3c(O)cc(O)cc3[o+]c2-c2ccc(O)cc2)[C@H](O)[C@@H](O)[C@H]1O` [PelG, reference compound] the inhibition at 100 µM [7] was 0.74%.

For `CC(=O)N[C@H]1[C@@H](Oc2ccc([N+](=O)[O-])cc2)O[C@H](CO)[C@H](O)[C@@H]1O[C@@H]1O[C@H](CO)[C@H](O)[C@H](O)[C@H]1O` [Gal-b1-3-PNPGalNAc, reference compound], the “% Inhibition at [μM] [100]” value [12] was 15.28%.

With `O=c1ccc2nc3ccc(O[C@@H]4O[C@H](CO)[C@H](O)[C@H](O)[C@H]4O)cc3oc-2c1` [Compound 15β, Resorufin galactoside] the “PI100 (percent inhibition)” value [10] was 80.4 ± 6.6%, the inhibition at 10 µM [11] was 24 ± 3.2% and the inhibition at 100 µM [6] was 80%.

`OC[C@H]1O[C@H](Oc2cccc(-c3ccccc3)c2)[C@H](O)[C@@H](O)[C@H]1O` [Compound 114af1] showed an inhibition at 100 µM [7] of 45.6%.

Compound `OC[C@H]1O[C@H](Oc2cccc3ccccc23)[C@H](O)[C@@H](O)[C@H]1O` [Compound 18α, 1-naphthalenyl α/β-D-galactopyranoside] has an inhibition at 100 µM [6] of 28.1 ± 3.4%.

For `CC(=O)N[C@H]1[C@H](Oc2cccc3ccc(C)nc23)O[C@H](CO)[C@H](O)[C@@H]1O` [AM1179, N-((2S,3R,4R,5R,6R)-4,5-dihydroxy-6-(hydroxymethyl)-2-((2-methylquinolin-8-yl)oxy)tetrahydro-2H-pyran-3-yl)acetamide], the inhibition at 1 µM [3] was 25.2% and the inhibition at 1 µM [5] was 25.2%.

With `N#Cc1ccc(O[C@@H]2O[C@H](CO)[C@H](O)[C@H](O)[C@H]2O)cc1` [Compound 152b] the inhibition at 1 µM [3] was 9.47%, the inhibition at 10 µM [8] was 19.2% and the inhibition at 100 µM [7] was 85.7%.

For `CC(=O)N[C@H]1[C@@H](Oc2ccc([N+](=O)[O-])cc2)O[C@H](CO)[C@H](O)[C@@H]1O` [PNP-aGalNAc, reference compound], the “% Inhibition at [μM] [10]” value (compound at 10 μM, inhibition of FmlHLD binding to ds-BSM) was 6.29% and the “% Inhibition at [μM] [100]” value [12] was 82.04%.

In the case of `CC(=O)Nc1cccc(-c2ccccc2O[C@@H]2O[C@H](CO)[C@H](O)[C@H](O)[C@H]2NC(C)=O)c1` [AM2062, N-(2′-(((2S,3R,4R,5R,6R)-3-acetamido-4,5-dihydroxy-6-(hydroxymethyl)tetrahydro-2H-pyran-2-yl)oxy)-[1,1′-biphenyl]-3-yl)acetamide], the IC50 [1] is reported as 0.31 µM, the IC50 [9] is reported as 0.623 µM and the inhibition at 0.1 µM [2] is reported as 14.8%. The inhibition at 1 µM [3] was 67.9%, the inhibition at 0.1 µM [4] was 14.8% and the inhibition at 1 µM [5] was 67.9%.

For `O=C(O)C1OC(Oc2ccc([N+](=O)[O-])cc2)C(O)C(O)C1O` (stereo not shown) [PNP Galacturonide, reference compound], the “% Inhibition at [μM] [100]” value [12] was −2.40%.

Compound `OC[C@H]1O[C@@H](Oc2ccc(-c3ccccc3)cc2)[C@H](O)[C@@H](O)[C@H]1O` [Compound 114bf2] has an inhibition at 100 µM [7] of 30%.
